Data published in patent US7592320B2, “Cancer gene therapy based on translational control of a suicide gene” (priority 2001, dated 2009).
Read-outs that look alike come from different tables or passages of the source.

Experiments:
MM2MT = experiment: cells; conditions: Mus musculus, 336 h, GCV 14 days
Protocol: (§1) Each vector was then stably transfected into either MM3MG cells (ATCC No.CRL6376, a normal mouse mammary line) or MM2MT cells (ATCC No. CRL6373, a mouse mammary carcinoma line). Unless otherwise stated, all cell lines were purchased from the American Type Culture Collection (“ATCC”), Manassas, Va. To overexpress eIF4E (referred to as eIF4E-S, for “sense”), the eIF4E cDNA was cloned into KpnI and NotI sites of the pREP7 episomal vector (Invitrogen, Carlsbad, Calif.). To reduce the eIF4E expression (referred to as eIF4E-AS, for “antisense”), an antisense eIF4E construct was subcloned into the pREP7 vector as described in A. De Benedetti et al., “Expression of antisense RNA against initiation factor eIF-4E mRNA in HeLa cells results in lengthened cell division times, diminished translation rates, and reduced levels of both eIF-4E and the P220 component of eIF-4F,” Mol. Cell. Biol., vol. 11, pp. 5435-5445 (1991).
(§2) All transfections were performed with the GenePORTER reagent (Gene Therapy Systems, San Diego, Calif.). Stable cell lines were obtained by selection with G418 for the BK constructs, and Hygromycin B for the pREP7 vectors.

MM3MG = experiment: cells; conditions: for EC50: Mus musculus, MM3MG, 336 h, GCV 14 days
Protocol: as §1, §2

MDA-231 = conditions: for ED50: GCV 14 days
MCF-10A = conditions: GCV 14 days
MM2MT tumors = experiment: Tumor ablation, MM2MT mammary fat pad tumors (about 40 mm^3) in athymic mice; assay type: in vivo, BALB/c athymic nu/nu mice; conditions: GCV administered alone (data not shown)
Protocol: 10^6 MM2MT cells were suspended in 0.1 ml serum and antibiotic-free DMEM medium and injected subcutaneously into the mammary fat pad. Tumor latency was determined as the time necessary for the tumors to grow to 0.5 cm (largest diameter). Tumor doubling times were determined by daily measuring the smallest (d) and the largest (D) diameters with calipers, and estimating the volume using the formula, V=D×d^2×0.52. The reported numbers are the mean and standard deviation of the tumor volumes for each group.
When the tumor volumes were approximately 40 mm^3, the mice were randomly separated into two groups, and either the BK-TK or the BK-UTK vectors were injected as a liposomal complex near the tumor. To make the liposomal complex for transfection of primary tumors, 10 μg of endotoxin-free purified (QIAGEN, Inc., Valencia, Calif.) plasmid DNA was diluted in 50 μl medium without serum or antibiotics. In a separate tube, 50 μl of GenePORTER reagent (Gene Therapy Systems, San Diego, Calif.) was mixed with 50 μl serum and antibiotic-free medium. The two tubes were then combined, briefly vortexed, and allowed to incubate at room temperature for 20 minutes, after which the resulting liposome complex was injected between the tumor and the skin of the mouse.
One of the 6 mice in each group had no palpable tumor remaining at the end of the 10-day treatment.

MCF7 = conditions: GCV 14 days
MDA-435S = conditions: GCV 14 days

EC50 (MM2MT; read-out: ED50, MM2MT-TK cells): 0.095 µM | EC50 (MM2MT; read-out: ED50, MM2MT-TK/4E-AS cells): 0.15 µM | EC50 (MM2MT; read-out: ED50, MM2MT-UTK cells): 0.5 µM | EC50 (MM2MT; read-out: ED50, MM2MT-UTK/4E-AS cells): 55 µM | EC50 (MM3MG; read-out: ED50, MM3MG-TK cells): 0.3 µM | EC50 (MM3MG; read-out: ED50, MM3MG-UTK cells): 75 µM | EC50 (MM3MG; read-out: ED50, MM3MG-UTK/4E-AS cells (so in the source)): 0.9 µM
SMILES: Nc1nc(O)c2ncn(COC(CO)CO)c2n1 [GCV, Ganciclovir]
EC50 (MM2MT; read-out: ED50, MM2MT untransfected cells): 95 µM | GCV concentration to which cells were sensitive (dose-response curve) (MM3MG; MM3MG-TK (normal) cells, 14 days): 0.1 µM | EC50 (MM3MG; read-out: ED50, MM3MG untransfected cells, concentration that kills 50% of the cells): 200 µM | GCV concentration at which cells were non-specifically inhibited (MM3MG; untransfected MM3MG cells, 14 days): 200 µM | GCV concentration of non-specific toxicity (MDA-231; MDA-231-TK and MDA-231-UTK cells, otherwise insensitive to GCV): 5 mM | ED50 (MDA-231; MDA-231-TK cells): 4000 µM | ED50 (MDA-231; MDA-231-UTK cells): 4000 µM | ED50 (MDA-231; MDA-231 untransfected cells): 6000 µM | ED50 (MCF-10A; MCF-10A untransfected cells): 6000 µM | ED50 (MCF-10A; MCF-10A-TK cells): 300 µM | ED50 (MCF-10A; MCF-10A-UTK cells): 5500 µM | effect on the growth of MM2MT tumors (MM2MT tumors): no effect | ED50 (MCF7; MCF7-TK cells): 20 µM | ED50 (MCF7; MCF7-UTK cells): 10 µM | ED50 (MCF7; MCF7 untransfected cells): 6000 µM | ED50 (MDA-435S; MDA-435S untransfected cells): 350 µM | ED50 (MDA-435S; MDA-435S-TK cells): 15 µM | ED50 (MDA-435S; MDA-435S-UTK cells): 15 µM
